Data: US20190047966A1, “NOVEL COMPOUND AND PHARMACOLOGICALLY ACCEPTABLE SALT THEREOF” (MEIJI SEIKA PHARMA CO., LTD., priority 2016, published 2019)
Counter-ions that a name gives are not always drawn.

Assays:
[1] = molecular target: T1, human histamine H4 receptor (Homo sapiens, UniProt Q9H3N8); assay: Evaluation of Human H4 Receptor Affinity ([3H]histamine binding); details: inhibition constant Ki, CHO-K1 membrane preparation, read-out: Evaluation of H4 Receptor Affinity
T1 construct: purchased PerkinElmer Inc; host or cells: CHO-K1
T1 sequence (Q9H3N8 whole entry): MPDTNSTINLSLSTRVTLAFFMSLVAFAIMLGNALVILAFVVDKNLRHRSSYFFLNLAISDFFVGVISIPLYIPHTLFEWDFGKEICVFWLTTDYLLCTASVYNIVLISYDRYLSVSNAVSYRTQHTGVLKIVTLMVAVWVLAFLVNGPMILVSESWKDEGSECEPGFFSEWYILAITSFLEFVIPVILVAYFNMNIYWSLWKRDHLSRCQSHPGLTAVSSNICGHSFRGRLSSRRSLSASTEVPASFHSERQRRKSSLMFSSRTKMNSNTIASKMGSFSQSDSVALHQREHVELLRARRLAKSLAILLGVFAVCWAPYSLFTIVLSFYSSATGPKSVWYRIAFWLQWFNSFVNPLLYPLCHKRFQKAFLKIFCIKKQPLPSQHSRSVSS
How it was run: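 Radioligand displacement: compound competes with 8.2 nM [3H]histamine at recombinant human H4 receptor in CHO-K1 membranes (Tris-HCl 50 mM pH 7.4, EDTA 1.25 mM; 25 °C, 90 min), with filter-bound radioactivity counted. IC50 was converted to Ki via Cheng-Prusoff (Kd 5.7 nM); 1.0 μM histamine set nonspecific binding.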

[2] = molecular target: human histamine H1 receptor (Homo sapiens, UniProt P35367); assay: Evaluation of Human H1 Receptor Affinity ([3H]pyrilamine binding); parameters: purchased PerkinElmer Inc; host or cells: CHO-K1; details: inhibition constant Ki, CHO-K1 membrane preparation
human histamine H1 receptor, sequence (P35367 whole entry): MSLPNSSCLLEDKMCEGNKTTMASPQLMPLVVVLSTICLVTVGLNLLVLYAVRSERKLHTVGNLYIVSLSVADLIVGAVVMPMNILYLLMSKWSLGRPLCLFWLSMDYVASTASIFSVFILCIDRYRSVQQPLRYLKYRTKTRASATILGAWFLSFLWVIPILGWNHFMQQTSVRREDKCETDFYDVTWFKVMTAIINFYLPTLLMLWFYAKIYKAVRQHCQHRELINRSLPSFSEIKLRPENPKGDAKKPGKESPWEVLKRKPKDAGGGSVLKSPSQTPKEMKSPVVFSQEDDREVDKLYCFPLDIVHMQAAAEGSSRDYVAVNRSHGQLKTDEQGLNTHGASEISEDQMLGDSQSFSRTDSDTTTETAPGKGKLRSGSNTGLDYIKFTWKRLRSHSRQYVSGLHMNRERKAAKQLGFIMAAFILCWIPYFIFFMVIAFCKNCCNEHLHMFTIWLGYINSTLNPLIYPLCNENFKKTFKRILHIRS
How it was run: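 Ki values are Cheng-Prusoff conversions of IC50 (Kd 1.1 nM) from radioligand displacement of 1.2 nM [3H]pyrilamine, with 1.0 μM pyrilamine defining nonspecific binding.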

SMILES | Ki [1] | Ki [2]
CN1CCN(c2nc(N)nc3c2CCc2cc(NS(=O)(=O)c4ccc(Cl)c(F)c4)ccc2-3)CC1 [Example 45, N-(2-amino-4-(4-methylpiperazin-1-yl)-5,6-dihydrobenzo[h]quinazolin-8-yl)-4-chloro-3-fluorobenzenesulfonamide] | 100 to 500 nM | < 100 nM
CN1CCN(c2nc(N)nc3c2CCc2cc(NS(=O)(=O)c4ccc(Cl)cc4F)ccc2-3)CC1 [Example 46, N-(2-amino-4-(4-methylpiperazin-1-yl)-5,6-dihydrobenzo[h]quinazolin-8-yl)-4-chloro-2-fluorobenzenesulfonamide] | 100 to 500 nM | < 100 nM
CN1CCN(c2nc(N)nc3c2CCc2cc(NS(=O)(=O)c4ccc(C#N)cc4)ccc2-3)CC1 [Example 47, N-(2-amino-4-(4-methylpiperazin-1-yl)-5,6-dihydrobenzo[h]quinazolin-8-yl)-4-cyanobenzenesulfonamide] | 100 to 500 nM | 100 to 500 nM
CN1CCN(c2nc(N)nc3c2CCc2cc(NS(=O)(=O)Cc4ccccc4)ccc2-3)CC1 [Example 48, N-(2-amino-4-(4-methylpiperazin-1-yl)-5,6-dihydrobenzo[h]quinazolin-8-yl)-1-phenylmethanesulfonamide] | 100 to 500 nM | 100 to 500 nM
CN1CCN(c2nc(N)nc3c2CCc2cc(NS(=O)(=O)c4ccc(Cl)nc4)ccc2-3)CC1 [Example 49, N-(2-amino-4-(4-methylpiperazin-1-yl)-5,6-dihydrobenzo[h]quinazolin-8-yl)-6-chloropyridine-3-sulfonamide] | 100 to 500 nM | 100 to 500 nM
CN1CCN(c2nc(N)nc3c2CCc2cc(NS(=O)(=O)c4ccc(F)cc4)ccc2-3)CC1 [Example 50, N-(2-amino-4-(4-methylpiperazin-1-yl)-5,6-dihydrobenzo[h]quinazolin-8-yl)-4-fluorobenzenesulfonamide] | < 100 nM | < 100 nM
CN1CCN(c2nc(N)nc3c2CCc2cc(NS(=O)(=O)CCc4ccccc4)ccc2-3)CC1 [Example 51, N-(2-amino-4-(4-methylpiperazin-1-yl)-5,6-dihydrobenzo[h]quinazolin-8-yl)-6-phenylethane-1-sulfonamide] | < 100 nM | < 100 nM
CN1CCN(c2nc(N)nc3c2CCc2cc(NS(=O)(=O)CCCc4ccccc4)ccc2-3)CC1 [Example 52, N-(2-amino-4-(4-methylpiperazin-1-yl)-5,6-dihydrobenzo[h]quinazolin-8-yl)-3-phenylpropane-1-sulfonamide] | < 100 nM | < 100 nM
COc1ccc(S(=O)(=O)Nc2ccc3c(c2)CCc2c-3nc(N)nc2N2CCN(C)CC2)cc1 [Example 53, N-(2-amino-4-(4-methylpiperazin-1-yl)-5,6-dihydrobenzo[h]quinazolin-8-yl)-4-methoxybenzenesulfonamide] | 100 to 500 nM | < 100 nM
COC(=O)c1ccc(S(=O)(=O)Nc2ccc3c(c2)CCc2c-3nc(N)nc2N2CCN(C)CC2)cc1 [Example 55, methyl 4-(N-(2-amino-4-(4-methylpiperazin-1-yl)-5,6-dihydrobenzo[h]quinazolin-8-yl)sulfamoyl)benzoate] | 100 to 500 nM | 100 to 500 nM
CN1CCN(c2nc(N)nc3c2CCc2cc(NS(=O)(=O)C4CCCCC4)ccc2-3)CC1 [Example 56, N-(2-amino-4-(4-methylpiperazin-1-yl)-5,6-dihydrobenzo[h]quinazolin-8-yl)cyclohexanesulfonamide] | 100 to 500 nM | 100 to 500 nM
CN[C@H]1CCN(c2nc(N)nc3c2CCc2cc(OCc4ccccc4)ccc2-3)C1 [Example 101, (S)-8-(benzyloxy)-4-(3-(methylamino)pyrrolidin-1-yl)-5,6-dihydrobenzo[h]quinazolin-2-amine] | < 100 nM | 100 to 500 nM
CN(C)[C@@H]1CCN(c2nc(N)nc3c2CCc2cc(OCc4ccccc4)ccc2-3)C1 [Example 103, (R)-8-(benzyloxy)-4-(3-(dimethylamino)pyrrolidin-1-yl)-5,6-dihydrobenzo[h]quinazolin-2-amine] | < 100 nM | 100 to 500 nM
CN(C)C1CCN(c2nc(N)nc3c2CCc2cc(OCc4ccccc4)ccc2-3)CC1 [Example 104, 8-(benzyloxy)-4-(4-(dimethylamino)piperidin-1-yl)-5,6-dihydrobenzo[h]quinazolin-2-amine] | < 100 nM | 100 to 500 nM
CCS(=O)(=O)NCCCCN1CCN(c2nc(N)nc3c2CCc2cc(OCc4ccccc4)ccc2-3)CC1 [Example 105, N-(4-(4-(2-amino-8-(benzyloxy)-5,6-dihydrobenzo[h]quinazolin-4-yl)piperazin-1-yl)butyl)ethanesulfonamide bis(trifluoroacetate)] | 100 to 500 nM | < 100 nM
CN1CCN(c2nc(N)nc3c2CCc2cc(OCc4ccccc4)ccc2-3)CC1CO (stereo not shown) [Example 106, (4-(2-amino-8-(benzyloxy)-5,6-dihydrobenzo[h]quinazolin-4-yl)-1-methylpiperazin-2-yl)methanol] | 100 to 500 nM | 100 to 500 nM
CCS(=O)(=O)CCCN1CCN(c2nc(N)nc3c2CCc2cc(OCc4ccccc4)ccc2-3)CC1 [Example 107, 8-(benzyloxy)-4-(4-(3-(ethylsulfonyl)propyl)piperazin-1-yl)-5,6-dihydrobenzo[h]quinazolin-2-amine] | 100 to 500 nM | < 100 nM
CNC(=O)COCCOCCN1CCN(c2nc(N)nc3c2CCc2cc(OCc4ccccc4)ccc2-3)CC1 [Example 108, 2-(2-(2-(4-(2-amino-8-(benzyloxy)-5,6-dihydrobenzo[h]quinazolin-4-yl)piperazin-1-yl)ethoxy)ethoxy)-N-methylacetamide] | < 100 nM | < 100 nM
NC(=O)COCCOCCN1CCN(c2nc(N)nc3c2CCc2cc(OCc4ccccc4)ccc2-3)CC1 [Example 109, 2-(2-(2-(4-(2-amino-8-(benzyloxy)-5,6-dihydrobenzo[h]quinazolin-4-yl)piperazin-1-yl)ethoxy)ethoxy)acetamide] | 100 to 500 nM | < 100 nM
CS(=O)(=O)NCCOCCOCCN1CCN(c2nc(N)nc3c2CCc2cc(OCc4ccccc4)ccc2-3)CC1 [Example 110, N-(2-(2-(2-(4-(2-amino-8-(benzyloxy)-5,6-dihydrobenzo[h]quinazolin-4-yl)piperazin-1-yl)ethoxy)ethoxy)ethyl)methanesulfonamide dihydrochloride] | < 100 nM | < 100 nM
Nc1nc2c(c(N3CCN(CCOCCOCCN4C(=O)c5ccccc5C4=O)CC3)n1)CCc1cc(OCc3ccc(Cl)cc3)ccc1-2 [Example 112, 2-(2-(2-(2-(4-(2-amino-8-((4-chlorobenzyl)oxy)-5,6-dihydrobenzo[h]quinazolin-4-yl)piperazin-1-yl)ethoxy)ethoxy)ethyl)isoindoline-1,3-dione] | 100 to 500 nM | < 100 nM
COC(=O)COCCN1CCN(c2nc(N)nc3c2CCc2cc(OCc4ccc(Cl)cc4)ccc2-3)CC1 [Example 113, methyl 2-(2-(4-(2-amino-8-((4-chlorobenzyl)oxy)-5,6-dihydrobenzo[h]quinazolin-4-yl)piperazin-1-yl)ethoxy)acetate] | < 100 nM | < 100 nM
CCS(=O)(=O)CCCN1CCN(c2nc(N)nc3c2CCc2cc(OCc4ccc(Cl)cc4)ccc2-3)CC1 [Example 114, 8-((4-chlorobenzyl)oxy)-4-(4-(3-(ethylsulfonyl)propyl)piperazin-1-yl)-5,6-dihydrobenzo[h]quinazolin-2-amine] | 100 to 500 nM | < 100 nM
Nc1nc2c(c(N3CCN(CCOCCOc4nnn[nH]4)CC3)n1)CCc1cc(OCc3ccc(Cl)cc3)ccc1-2 [Example 115, 4-(4-(2-(2-((tetrazol-5-yl)oxy)ethoxy)ethyl)piperazin-1-yl)-8-((4-chlorobenzyl)oxy)-5,6-dihydrobenzo[h]quinazolin-2-amine dihydrochloride] | 100 to 500 nM | < 100 nM
Nc1nc2c(c(N3CCN(CCOCc4cc(OCc5ccccc5)no4)CC3)n1)CCc1cc(OCc3ccc(Cl)cc3)ccc1-2 [Example 116, 4-(4-(2-((3-(benzyloxy)isoxazol-5-yl)methoxy)ethyl)piperazin-1-yl)-8-((4-chlorobenzyl)oxy)-5,6-dihydrobenzo[h]quinazolin-2-amine] | 100 to 500 nM | < 100 nM
COC(=O)C1CN(C(=O)CCCN2CCN(c3nc(N)nc4c3CCc3cc(OCc5ccc(Cl)cc5)ccc3-4)CC2)C1 [Example 117, methyl 1-(4-(4-(2-amino-8-((4-chlorobenzyl)oxy)-5,6-dihydrobenzo[h]quinazolin-4-yl)piperazin-1-yl)butanoyl)azetidine-3-carboxylate] | < 100 nM | 100 to 500 nM
NCCOCCOCCN1CCN(c2nc(N)nc3c2CCc2cc(OCc4ccc(Cl)cc4)ccc2-3)CC1 [Example 118, 4-(4-(2-(2-(2-aminoethoxy)ethoxy)ethyl)piperazin-1-yl)-8-((4-chlorobenzyl)oxy)-5,6-dihydrobenzo[h]quinazolin-2-amine] | < 100 nM | < 100 nM
Nc1nc2c(c(N3CCN(CCOCCOCC(=O)O)CC3)n1)CCc1cc(OCc3ccccc3)ccc1-2 [Example 119, 2-(2-(2-(4-(2-amino-8-(benzyloxy)-5,6-dihydrobenzo[h]quinazolin-4-yl)piperazin-1-yl)ethoxy)ethoxy)acetic acid bis(trifluoroacetate)] | 100 to 500 nM | < 100 nM
Nc1nc2c(c(N3CCN(CCCCCOCC(=O)O)CC3)n1)CCc1cc(OCc3ccccc3)ccc1-2 [Example 120, 2-((5-(4-(2-amino-8-(benzyloxy)-5,6-dihydrobenzo[h]quinazolin-4-yl)piperazin-1-yl)pentyl)oxy)acetic acid] | < 100 nM | < 100 nM
